Series [1] can be described thus: Measurement of brain and systemic concentration after oral administration.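 On concentration in plasma [P]: unit ng/mL.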 The following applies: rat, 3 h after oral administration (100 mg/kg), n=3, male wistar rats. In kind it is in vivo. Here is the method: Measurement of Brain and Systemic Concentration after Oral Administration:
In order to assess brain penetration, the concentration of the compound is measured in plasma ([P]), and brain ([B]), sampled 3 h (or at different time points) following oral administration (e.g. 100 mg/kg) to male wistar rats. The compounds are formulated e.g. in 100% PEG 400. Samples are collected in the same animal at the same time point (+/−5 min). Blood is sampled from the vena cava caudalis into containers with EDTA as anticoagulant and centrifuged to yield plasma. Brain is sampled after cardiac perfusion of 10 mL NaCl 0.9% and homogenized into one volume of cold phosphate buffer (pH 7.4). All samples are extracted with MeOH and analyzed by LC-MS/MS. Concentrations are determined with the help of calibration curves.

Series [2] concerns the target human orexin-2 receptor (Homo sapiens (Human), UniProt O43614). Briefly: Intracellular calcium measurement (FLIPR), CHO cells expressing human orexin-2 receptor, 3 nM orexin-A. The following applies: read-out: IC50 OX2. In kind it is cell-based. The method in brief:
(§1)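 CHO cells stably expressing each receptor were loaded with 3 μM fluo-4 AM plus 5 mM probenecid for 50 min at 37 °C, then equilibrated 30 min at rt.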
In general terms: Calcium flux is commonly read through the fluorescence of an indicator in the cells.

Series [3] has as its system Wistar rats. Briefly: Sleep effects: EEG, EMG and behavioural indices of alertness by radiotelemetry. In kind it is in vivo. Particulars: effects analyzed over 12 hours, compared to vehicle controls. Here is the method:
Sleep Effects: EEG, EMG and Behavioural Indices of Alertness Recorded by Radiotelemetry In Vivo in Wistar Rats.
Electroencephalography (EEG) and Electromyography (EMG) signals were measured by telemetry using TL11M2-F20-EET miniature radiotelemetric implants (Data Science Int.) with two pairs of differential leads.
Surgical implantation was performed under general anesthesia with Ketamin/Xylazin, for cranial placement of one differential pair of EEG electrodes and one pair of EMG leads inserted in either side of the muscles of the neck. After surgery, rats recovered in a thermoregulated chamber and received analgesic treatment with subcutaneous buprenorphine twice a day for 2 d. They were then housed individually and allowed to recover for a minimum of 2 weeks. Thereafter, rats—in their home cage—were placed in a ventilated sound-attenuating box, on a 12-h light/12-h dark cycle, for acclimatization before continuous EEG/EMG recordings started. The telemetric technology that we used in this study allows accurate and stress-free acquisition of biosignals in rats placed in their familiar home cage environment, with no recording leads restricting their movements. Variables analyzed included four different stages of vigilance and sleep, spontaneous activity in the home cage and body temperature. Sleep and wake stages were evaluated using a rodent scoring software (Somnologica Science) directly processing electrical biosignals on 10 s contiguous epochs. The scoring is based on frequency estimation for EEG and amplitude discrimination for EMG and locomotor activity. Using these measurements, the software determines the probability that all components within each epoch best represent active waking (AW), quiet waking (QW), non-REM-sleep (NREM) or REM-sleep (REM). The percentage of total time spent in AW, QW, NREM- and REM-sleep was calculated per 12 h light or dark period. The latency to the onset of the first significant NREM- and REM-sleep episodes and the number and duration of those episodes were also calculated. AW, QW, NREM- and REM-sleep, home cage activity and body temperature were measured at baseline for at least one total circadian cycle (12 h-night, 12 h-day) before a test compound was administered. […] All variables were subsequently recorded for 12 h following administration of the orexin receptor antagonist.

Series [4] concerns the target orexin-1 (Homo sapiens (Human), UniProt O43613). Description: Intracellular calcium measurement (FLIPR), CHO cells expressing human orexin-1 receptor, 3 nM orexin-A. In kind it is cell-based. Particulars: read-out: IC50 OX1. The method in brief: as §1
The mark [5] stands for this setting: brain, read-out: concentration in brain [B].
[6] abbreviates: plasma, read-out: concentration in plasma [P].
[7] abbreviates: CHO cells expressing human orexin-2 receptor, FLIPR, 3 nM orexin-A, geometric mean if determined several times.
Setting [8] is: CHO cells expressing human orexin-1 receptor, FLIPR, 3 nM orexin-A, geometric mean if determined several times.

pIC50: −log10 of the molar value. Read-outs that look alike come from different tables or passages of the source.

Sequence of human orexin-2 receptor (O43614 whole entry): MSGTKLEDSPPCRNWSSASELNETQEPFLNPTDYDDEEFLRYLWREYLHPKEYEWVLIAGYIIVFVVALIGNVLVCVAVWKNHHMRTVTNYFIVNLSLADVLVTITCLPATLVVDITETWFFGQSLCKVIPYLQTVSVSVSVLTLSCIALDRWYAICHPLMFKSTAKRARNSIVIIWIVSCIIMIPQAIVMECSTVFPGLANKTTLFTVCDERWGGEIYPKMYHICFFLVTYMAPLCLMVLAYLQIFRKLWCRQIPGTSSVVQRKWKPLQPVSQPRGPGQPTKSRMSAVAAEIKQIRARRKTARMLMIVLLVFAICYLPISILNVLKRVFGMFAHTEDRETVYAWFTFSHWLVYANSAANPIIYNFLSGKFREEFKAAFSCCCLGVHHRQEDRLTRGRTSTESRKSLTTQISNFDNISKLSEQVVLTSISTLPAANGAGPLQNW
Sequence of orexin-1 (O43613 whole entry): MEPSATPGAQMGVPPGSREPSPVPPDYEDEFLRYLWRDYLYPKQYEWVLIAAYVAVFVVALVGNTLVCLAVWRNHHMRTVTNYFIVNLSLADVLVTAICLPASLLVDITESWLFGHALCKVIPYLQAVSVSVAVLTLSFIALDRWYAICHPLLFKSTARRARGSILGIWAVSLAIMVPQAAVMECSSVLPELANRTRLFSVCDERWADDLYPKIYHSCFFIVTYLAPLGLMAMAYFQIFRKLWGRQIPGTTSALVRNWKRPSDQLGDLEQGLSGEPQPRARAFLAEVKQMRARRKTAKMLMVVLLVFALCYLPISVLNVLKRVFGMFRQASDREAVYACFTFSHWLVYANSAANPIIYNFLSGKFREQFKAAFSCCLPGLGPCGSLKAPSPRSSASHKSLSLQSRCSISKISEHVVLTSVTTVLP

As to `Cc1cc(C(=O)N2CCC[C@H]2c2nc(-c3cccc(Cl)c3C)no2)c(-n2nccn2)cc1C` [Example 95, {(S)-2-[3-(3-Chloro-2-methyl-phenyl)-[1,2,4]oxadiazol-5-yl]-pyrrolidin-1-yl}-(4,5-dimethyl-2-[1,2,3]triazol-2-yl-phenyl)-methanone], the concentration at 3 h in series [1] (setting [5]) worked out at 483 ng/g. In series [1] (setting [6]), the concentration at 3 h amounted to 309 ng/mL. For the same compound, in series [2] (setting [7]), the negative-log IC50 (pIC50) is 8.52. In series [3] (100 mg/kg po), the “effect on NREM sleep” value was “+11.2%”, the “effect on REM sleep” value is reported as “+7.8%”, the “effect on active wake” value is listed as −7.3% and the “effect on home cage activity” value was −20.3%. In addition, the pIC50 in series [4] (setting [8]) is 7.89.
As for `COc1cc(C(=O)N2CCC[C@H]2c2nc(-c3ccccc3OC(F)(F)F)no2)c(-n2nccn2)cc1C` [Example 154, (5-Methoxy-4-methyl-2-[1,2,3]triazol-2-yl-phenyl)-{(S)-2-[3-(2-trifluoromethoxy-phenyl)-[1,2,4]oxadiazol-5-yl]-pyrrolidin-1-yl}-methanone], the concentration at 3 h in series [1] (setting [5]) is 3250 ng/g. In addition, in series [1] (setting [6]), the concentration at 3 h came out at 2240 ng/mL. Further, in series [2] (setting [7]), the pIC50 is 8.70. In series [3] (100 mg/kg po), the “effect on NREM sleep” value is “+7.3%”, the “effect on REM sleep” value is listed as “+0.9%”, the “effect on active wake” value is −13.9% and the “effect on home cage activity” value is on record as −26.8%. Also, in series [4] (setting [8]), the pIC50 is 7.52.
For `COc1cc(C(=O)N2CCC[C@H]2c2noc(-c3ccccc3OC(F)(F)F)n2)c(-n2nccn2)cc1C` [Example 308, (5-Methoxy-4-methyl-2-[1,2,3]triazol-2-yl-phenyl)-{(S)-2-[5-(2-trifluoromethoxy-phenyl)-[1,2,4]oxadiazol-3-yl]-pyrrolidin-1-yl}-methanone], the concentration at 3 h in series [1] (setting [5]) was 1580 ng/g. Further, in series [1] (setting [6]), the concentration at 3 h came to 1760 ng/mL. The pIC50 in series [2] (setting [7]) is 8.40. In series [3] (100 mg/kg po), the “effect on NREM sleep” value is “+14.3%”, the “effect on REM sleep” value is “+35.2%”, the “effect on active wake” value is −24.0% and the “effect on home cage activity” value is given as −41.4%. Besides, in series [4] (setting [8]), the negative logarithm of the IC50 (pIC50) was 7.66.
`Cc1ccc(C(=O)N2CCC[C@H]2c2nnc(-c3ccccc3OC(F)(F)F)[nH]2)c(-n2nccn2)c1` [Example 502, (4-Methyl-2-[1,2,3]triazol-2-yl-phenyl)-{(S)-2-[5-(2-trifluoromethoxy-phenyl)-4H-[1,2,4]triazol-3-yl]-pyrrolidin-1-yl}-methanone]: the concentration at 3 h in series [1] (setting [5]) came to 1640 ng/g. The concentration at 3 h in series [1] (setting [6]) is 2770 ng/mL. In addition, in series [3] (100 mg/kg po), the “effect on NREM sleep” value was “+24.2%”, the “effect on REM sleep” value is “+47.0%”, the “effect on active wake” value is recorded as −19.4% and the “effect on home cage activity” value was −47.1%.
In the case of `C[C@@]1(c2nnc(-c3ccccc3OC(F)(F)F)[nH]2)CCCN1C(=O)c1ccc(Cl)cc1-n1nccn1` [Example 544, (4-Chloro-2-[1,2,3]triazol-2-yl-phenyl)-{(S)-2-methyl-2-[5-(2-trifluoromethoxy-phenyl)-4H-[1,2,4]triazol-3-yl]-pyrrolidin-1-yl}-methanone], the concentration at 3 h in series [1] (setting [5]) stood at 1120 ng/g. Besides, the concentration at 3 h in series [1] (setting [6]) is 1070 ng/mL. Also, in series [2] (setting [7]), the negative-log IC50 (pIC50) is 8.22. In series [3] (30 mg/kg po), the “effect on NREM sleep” value is given as “+19.4%”, the “effect on REM sleep” value was “+5.6%”, the “effect on active wake” value is −9.6% and the “effect on home cage activity” value is −18.5%. In addition, in series [4] (setting [8]), the negative-log IC50 (pIC50) is 8.30.
`Cc1c(Cl)cccc1-c1nnc([C@]2(C)CCCN2C(=O)c2cc(Cl)ccc2-n2nccn2)[nH]1` [compound 554]: the pIC50 in series [2] was 7.47; in series [4] (setting [8]) it was 6.92.
For `Cc1c(Cl)cccc1-c1nnc([C@]2(C)CCCN2C(=O)c2ccc(Cl)cc2-n2nccn2)[nH]1` [compound 555], the negative-log IC50 (pIC50) in series [2] (setting [7]) was 7.96; in series [4] (setting [8]), 7.57.
Take `Cc1ccc(-c2ccccc2)c(C(=O)N2CCC[C@@]2(C)c2nnc(-c3cccc(Cl)c3C)[nH]2)c1` [compound 556]: the pIC50 in series [2] (setting [7]) was 6.07; in series [4] (setting [8]), 6.06.
Turning to `Cc1ccc(C(=O)N2CCC[C@@]2(C)c2nnc(-c3cccc(Cl)c3C)[nH]2)c(-c2ccccc2)c1` [compound 557], the pIC50 was 6.65 in series [2] (setting [7]) and 6.53 in series [4] (setting [8]).
With “(4,5-Dimethyl-2-[1,2,3]triazol-2-yl-phenyl)-{(S)-2-[5-(2-trifluoromethoxy-phenyl)-[1,2,4]oxadiazol-3-yl]-pyrrolidin-1-yl}-methanone [Example 304]”, the pIC50 in series [2] (setting [7]) was 8.52; in series [4] (setting [8]), 8.40.
As to “Furan-3-yl-[(S)-2-(3-o-tolyl-[1,2,4]oxadiazol-5-yl)-pyrrolidin-1-yl]-methanone [Reference compound 6, reference compound]”, the negative logarithm of the IC50 (pIC50) is 7.57 in series [2] (setting [7]) and 7.68 in series [4].
For “Furan-3-yl-[(S)-2-(3-phenyl-[1,2,4]oxadiazol-5-yl)-pyrrolidin-1-yl]-methanone [Reference compound 4, reference compound]”, in that order: 6.05 and below 5.30.
With “Thiophen-2-yl-[(S)-2-(3-o-tolyl-[1,2,4]oxadiazol-5-yl)-pyrrolidin-1-yl]-methanone [Reference compound 3, reference compound]”, the pIC50 in series [2] was 7.47; in series [4] (setting [8]) it was 6.74.
As to “[3-(2-Chloro-phenyl)-5-methyl-isoxazol-4-yl]-{(S)-2-[3-(2-trifluoromethoxy-phenyl)-[1,2,4]oxadiazol-5-yl]-pyrrolidin-1-yl}-methanone [Reference compound 10, reference compound]”, the pIC50 in series [2] (setting [7]) was 6.82; in series [4] (setting [8]), 5.98.
“{(S)-2-[3-(3-Chloro-phenyl)-[1,2,4]oxadiazol-5-yl]-pyrrolidin-1-yl}-furan-3-yl-methanone [Reference compound 5, reference compound]”: the figures for the negative-log IC50 (pIC50) in series [2] (setting [7]) and in series [4] (setting [8]) were 6.26 and 6.39, respectively.
As for “{(S)-2-[3-(3-Chloro-phenyl)-[1,2,4]oxadiazol-5-yl]-pyrrolidin-1-yl}-thiophen-2-yl-methanone [Reference compound 2, reference compound]”, the negative-log IC50 (pIC50) in series [2] (setting [7]) is 7.39; in series [4] (setting [8]) it was 6.60.
For “{(S)-2-[5-(3-Chloro-2-methyl-phenyl)-[1,2,4]oxadiazol-3-yl]-pyrrolidin-1-yl}-[3-(2-chloro-phenyl)-5-methyl-isoxazol-4-yl]-methanone [Reference compound 8, reference compound]” the same measures were 7.13 and 6.81.
On to “{(S)-2-[5-(3-Chloro-2-methyl-phenyl)-[1,3,4]oxadiazol-2-yl]-pyrrolidin-1-yl}-[3-(2-chloro-phenyl)-5-methyl-isoxazol-4-yl]-methanone [Reference compound 9, reference compound]”, for which the pIC50 in series [2] (setting [7]) was 6.62; in series [4], 6.07.

In general, pIC50 refers to the IC50 on a negative log10 scale, so that one unit is a factor of ten.

For the origin of these results see US9493446B2, “Orexin receptor antagonists which are [ortho bi-(hetero-)aryl]-[2-(meta bi-(hetero-)aryl)-pyrrolidin-1-yl]-methanone derivatives” (Actelion Pharmaceuticals Ltd, priority 2012, dated 2016).
